The record followed here is patent US6930227B1 (Mitsui Chemicals, Inc., priority 1999, dated 2005).

The target of series [1] is T1, N-methyl transferase (Camellia sinensis, UniProt Q9FZN8).
T1 construct: made in house; host or cells: Escherichia coli BL21 (DE3), vector pET23d
T1 sequence (Q9FZN8 14-369 limits assumed): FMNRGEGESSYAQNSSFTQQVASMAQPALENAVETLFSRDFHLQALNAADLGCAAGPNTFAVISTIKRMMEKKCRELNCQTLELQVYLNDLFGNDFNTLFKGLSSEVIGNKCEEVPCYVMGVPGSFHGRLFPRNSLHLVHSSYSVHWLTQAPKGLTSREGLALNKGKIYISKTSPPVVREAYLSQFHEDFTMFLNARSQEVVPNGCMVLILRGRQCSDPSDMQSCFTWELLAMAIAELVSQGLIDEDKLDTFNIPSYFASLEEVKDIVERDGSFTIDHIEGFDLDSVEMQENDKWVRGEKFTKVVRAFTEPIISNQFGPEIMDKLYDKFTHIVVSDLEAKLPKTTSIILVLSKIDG
Briefly: N-methyl transferase measurement with enzyme solution from Escherichia coli expressing the gene (14C-caffeine extraction). The format is biochemical. Particulars: for production of methylated product from the added substrate: substrate added instead of paraxanthine, same reaction solution. The method, then:
Separately, a fragment obtained by treating the isolated N-methyl transferase gene DNA fragment with NcoI and EcoRI was inserted into a pET23d vector. Then, the above PCR product was inserted into the NcoI site of this pET23d vector to construct an N-methyl transferase expression plasmid. This plasmid was transformed to Escherichia coli BL21 (DE3). After the obtained Escherichia coli was cultured at 37° C. for 2 hours, IPTG was added thereto so as to be 0.3 mM in final concentration, and 3-hour culture was further carried out at 30° C. After culturing had been completed, cells were collected and the cells from 3 ml culture solution were subjected to supersonic treatment for 1 minute with interval in 0.2 ml 10 mM Tris-hydrochloric acid buffer solution (pH 7.5), 0.1 M NaCl, 1 mM EDTA-Na2. Then, centrifugation was carried out at 14,000 rpm for 10 minutes, and the obtained supernatant was employed as an enzyme solution.
The reaction solution for N-methyl transferase measurement was prepared as follows. […] Reaction was carried out at 27° C. for 10 minutes, the obtained ^14C-caffeine was extracted by adding 1 ml chloroform thereto and the radiation activity of a chloroform layer was measured. As a control, xanthosine was added to the reaction solution instead of paraxanthine or paraxanthine was removed.

Series [2] addresses T2, N-methyl transferase (Camellia sinensis, UniProt Q9FZN8).
T2 sequence (Q9FZN8 1-369): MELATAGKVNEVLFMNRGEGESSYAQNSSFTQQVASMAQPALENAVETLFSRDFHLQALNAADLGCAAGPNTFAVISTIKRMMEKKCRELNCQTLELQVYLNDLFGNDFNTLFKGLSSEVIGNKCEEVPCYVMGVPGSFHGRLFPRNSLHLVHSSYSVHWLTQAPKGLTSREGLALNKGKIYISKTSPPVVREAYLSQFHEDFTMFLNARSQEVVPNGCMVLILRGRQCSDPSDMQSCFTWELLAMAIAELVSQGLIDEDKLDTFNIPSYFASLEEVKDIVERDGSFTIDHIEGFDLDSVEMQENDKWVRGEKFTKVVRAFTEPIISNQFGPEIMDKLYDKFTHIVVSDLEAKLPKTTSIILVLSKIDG
It counts as biochemical. The method, then: Inhibitor: SAH (S-adenosyl homocysteine)
The reaction solution for N-methyl transferase measurement was prepared as follows. […] Reaction was carried out at 27° C. for 10 minutes, the obtained ^14C-caffeine was extracted by adding 1 ml chloroform thereto and the radiation activity of a chloroform layer was measured.

Substrate in series [3]: Cn1c(=O)[nH]c2ncn(C)c2c1=O
Kind of series: purified protein, by the assay type. The conditions noted are these: other: substrate of the N-methyl transferase; pH 8.5; 27.0 °C.

Take `Cn1cnc2[nH]c(=O)[nH]c(=O)c21` [7-methyl xanthine]: at N-methyl transferase [1], the “production of methylated product from the added substrate” value was “production of theobromine was observed”. As to `Nc1ncnc2c1ncn2[C@@H]1O[C@H](CSCC[C@H](N)C(=O)O)[C@@H](O)[C@H]1O` [SAH, S-adenosyl homocysteine], the Inhibitor result on N-methyl transferase [2] (inhibitor of the N-methyl transferase) is “Inhibitor”. In turn, `Cn1c(=O)[nH]c2ncn(C)c2c1=O` [paraxanthine] registered a caffeine produced at N-methyl transferase [1] (0.2 mM substrate, 4 μM S-adenosyl methionine, 10 μl enzyme solution, pH 8.5, 27° C., 10 minutes) of 1.56 pmol. Regarding `O=c1[nH]c(=O)c2ncn([C@@H]3O[C@H](CO)[C@@H](O)[C@H]3O)c2[nH]1` [xanthosine], the “production of methylated product from the added substrate” value at N-methyl transferase [1] is “caffeine was produced only when paraxanthine was added”. Same read-out and setting: the value for `Cn1cnc2c1c(=O)[nH]c(=O)n2C` [theobromine] was “production of caffeine was observed”.

`C[S+](CC[C@H](N)C(=O)[O-])C[C@H]1O[C@@H](n2cnc3c(N)ncnc32)[C@H](O)[C@@H]1O` (some centres unmarked) [SAM, S-adenosyl methionine]: the Km at N-methyl transferase [2] (substrate of the N-methyl transferase) turned out to be 21 µM.

B1: N-methyl transferase (Camellia sinensis) (protein)
chain: MELATAGKVNEVLFMNRGEGESSYAQNSSFTQQVASMAQPALENAVETLFSRDFHLQALNAADLGCAAGPNTFAVISTIKRMMEKKCRELNCQTLELQVYLNDLFGNDFNTLFKGLSSEVIGNKCEEVPCYVMGVPGSFHGRLFPRNSLHLVHSSYSVHWLTQAPKGLTSREGLALNKGKIYISKTSPPVVREAYLSQFHEDFTMFLNARSQEVVPNGCMVLILRGRQCSDPSDMQSCFTWELLAMAIAELVSQGLIDEDKLDTFNIPSYFASLEEVKDIVERDGSFTIDHIEGFDLDSVEMQENDKWVRGEKFTKVVRAFTEPIISNQFGPEIMDKLYDKFTHIVVSDLEAKLPKTTSIILVLSKIDG
B1: the Michaelis-Menten constant (Km) in series [3] was found to be 24 µM.

B2: N-methyl transferase: polypeptide of SEQ ID NO: 1 with 7-methyl xanthine N3, theobromine N1 and paraxanthine N3 methyl transferase activities (protein)
chain: FMNRGEGESSYAQNSSFTQQVASMAQPALENAVETLFSRDFHLQALNAADLGCAAGPNTFAVISTIKRMMEKKCRELNCQTLELQVYLNDLFGNDFNTLFKGLSSEVIGNKCEEVPCYVMGVPGSFHGRLFPRNSLHLVHSSYSVHWLTQAPKGLTSREGLALNKGKIYISKTSPPVVREAYLSQFHEDFTMFLNARSQEVVPNGCMVLILRGRQCSDPSDMQSCFTWELLAMAIAELVSQGLIDEDKLDTFNIPSYFASLEEVKDIVERDGSFTIDHIEGFDLDSVEMQENDKWVRGEKFTKVVRAFTEPIISNQFGPEIMDKLYDKFTHIVVSDLEAKLPKTTSIILVLSKIDG
Take B2: the “Optimum pH” value with N-methyl transferase [2] was 8.5.

Usually Km stands for the concentration of substrate that gives half-maximal velocity.
